Reference: US20220313774A1, “INTRANASAL ADMINISTRATION OF MEROTOCIN FOR IMPROVING LACTATION” (FERRING B.V., priority 2019, published 2022)
*1 amine or outer side, *2 acyl side, *3 side chain or, on linkers, in order; H or OH if unused. Where a SMILES comes first, the peptide text is derived from it. Bridges are numbered along the chain shown (N, C = ends). [ ]: non-standard residue; d: D form. N(4-F-Bzl)Gly = O=C(O)CNCc1ccc(F)cc1; X1 = O=C(CCC[*:2])[*:1]

How the values were obtained:
[1] = Trial 000015 Part 2: pharmacokinetics after multiple intranasal administrations; format: in vivo, human; conditions: female, human, plasma
Text: The trial was divided into three parts:
Part 2. Ascending multiple i.n. doses.

healthy women = conditions: in vivo
Experimental: (§1) The first clinical trial in human, Trial 000015, was a double-blind, placebo-controlled, single dose, within dose panel randomised, sequential dose escalating study. The trial was divided into three parts:
(§2) Part 1. Ascending single i.n. doses. There were 7 dose panels with 8 healthy women in each dose panel (6 active, 2 placebo). The doses investigated were 5 μg, 15 μg, 50 μg, 100 μg, 200 μg, 300 μg, and 400 μg.
(§3) Seven dose levels were investigated: 5, 15, 50, 100, 200, 300, and 400 μg. Each of the doses were administered as a nasal spray based on one or multiple puffs per nostril.
Part 3. Open-label cross-over single i.n. and single i.v. dose in 6 healthy women. The doses investigated were 20 μg as an i.v. infusion over 25 minutes, and 400 μg as a single i.n. dose.
(§4) The intranasal dose was 400 μg (4×140 μl, the same as the highest dose in Part 1), the i.v. dose was 20 μg infused in 2 mL over 25 minutes.

[2] = Trial 000015 Part 3: pharmacokinetics, single intranasal and single intravenous cross-over; conditions: female, human, plasma; for Tmax: tmax Mean (SD); for bioavailability: 400 μg i.n. vs 20 μg i.v.
Experimental: Open-label cross-over single i.n. and single i.v. dose in 6 healthy women. The doses investigated were 20 μg as an i.v. infusion over 25 minutes, and 400 μg as a single i.n. dose.
as §4
The intravenous dose and infusion rate were determined from the intranasal pharmacokinetic data in Part 1.

[3] = Trial 000015 Part 1: pharmacokinetics after single intranasal administration
Experimental: as §1, §2, §3
FE 202767 was provided as an isotonic citrate/phosphate buffered solution of pH 5.5 in water in vials containing an extractable volume of 0.9 mL (Table 2). The concentration of FE 202767 was 0.7 mg/mL, to be used appropriately diluted with buffer or, for Part 3, NaCl for injection. The buffer used for FE 202767 was used as placebo in this study.

Work on `CC[C@H](C)[C@@H]1NC(=O)[C@H](Cc2ccc(O)cc2)NC(=O)CCCSC[C@@H](C(=O)N(CC(=O)N[C@@H](CC(C)C)C(=O)NCC(N)=O)Cc2ccc(F)cc2)NC(=O)[C@H](CC(N)=O)NC(=O)[C@H](CCC(N)=O)NC1=O` [merotocin, Glycinamide, N-(4-mercapto-1-oxobutyl)-L-tyrosyl-L-isoleucyl-Lglutaminyl-L-asparaginyl-L-cysteinyl-N-[(4-fluorophenyl)methyl]glycyl-L-leucyl-, cyclic (1→5)-thioether] (YIQNC[N(4-F-Bzl)Gly]LG-NH2; linker N-5 via X1) yielded a half-life ([1]; inhaled or intranasal, 200 ug, multiple i.n. doses every 3 hours, 200 μg, Dose No. 2, read-out: t1/2 Harmonic mean (converted)) of 26.4 min, a Tmax ([1]; inhaled or intranasal, 200 ug, multiple i.n. doses every 3 hours, 200 μg, Dose No. 2, read-out: tmax Mean (SD)) of 16.8 min and an AUC(0-t) ([1]; inhaled or intranasal, 200 ug, multiple i.n. doses every 3 hours, 200 μg, Dose No. 16, read-out: AUCt Geom. mean (% CV)) of 0.16 ng·h/mL. For the same compound, the AUC(0-t) ([1]; inhaled or intranasal, 200 ug, multiple i.n. doses every 3 hours, 200 μg, Dose No. 16, read-out: AUCt Median) was 0.147 ng·h/mL, the Cmax ([1]; inhaled or intranasal, 200 ug, multiple i.n. doses every 3 hours, 200 μg, Dose No. 16, read-out: Cmax Geom. mean (% CV)) was 0.218 ng/mL and the Cmax ([1]; inhaled or intranasal, 200 ug, multiple i.n. doses every 3 hours, 200 μg, Dose No. 16, read-out: Cmax Median) was 0.225 ng/mL. The half-life ([1]; inhaled or intranasal, 200 ug, multiple i.n. doses every 3 hours, 200 μg, Dose No. 16, read-out: t1/2 Harmonic mean (converted)) was 30.6 min, the Tmax ([1]; inhaled or intranasal, 200 ug, multiple i.n. doses every 3 hours, 200 μg, Dose No. 16, read-out: tmax Mean (SD)) was 18.6 min and the AUC(0-t) ([1]; inhaled or intranasal, 400 ug, multiple i.n. doses every 3 hours, 400 μg, Dose No. 1, read-out: AUCt Geom. mean (% CV)) was 0.0771 ng·h/mL. The AUC(0-t) ([1]; inhaled or intranasal, 400 ug, multiple i.n. doses every 3 hours, 400 μg, Dose No. 1, read-out: AUCt Median) was 0.0702 ng·h/mL, the Cmax ([1]; inhaled or intranasal, 400 ug, multiple i.n. doses every 3 hours, 400 μg, Dose No. 1, read-out: Cmax Geom. mean (% CV)) was 0.156 ng/mL and the Cmax ([1]; inhaled or intranasal, 400 ug, multiple i.n. doses every 3 hours, 400 μg, Dose No. 1, read-out: Cmax Median) was 0.136 ng/mL. For the same compound, the half-life ([1]; inhaled or intranasal, 400 ug, multiple i.n. doses every 3 hours, 400 μg, Dose No. 1, read-out: t1/2 Harmonic mean (converted)) was 21 min, the AUC(0-t) ([1]; inhaled or intranasal, 400 ug, multiple i.n. doses every 3 hours, 400 μg, Dose No. 2, read-out: AUCt Geom. mean (% CV)) was 0.0888 ng·h/mL and the AUC(0-t) ([1]; inhaled or intranasal, 400 ug, multiple i.n. doses every 3 hours, 400 μg, Dose No. 2, read-out: AUCt Median) was 0.142 ng·h/mL. The Cmax ([1]; inhaled or intranasal, 400 ug, multiple i.n. doses every 3 hours, 400 μg, Dose No. 2, read-out: Cmax Geom. mean (% CV)) was 0.169 ng/mL, the Cmax ([1]; inhaled or intranasal, 400 ug, multiple i.n. doses every 3 hours, 400 μg, Dose No. 2, read-out: Cmax Median) was 0.195 ng/mL and the half-life ([1]; inhaled or intranasal, 400 ug, multiple i.n. doses every 3 hours, 400 μg, Dose No. 2, read-out: t1/2 Harmonic mean (converted)) was 23.4 min. The Tmax ([1]; inhaled or intranasal, 400 ug, multiple i.n. doses every 3 hours, 400 μg, Dose No. 2, read-out: tmax Mean (SD)) was 9.6 min, the Cmax ([1]; inhaled or intranasal, 400 ug, multiple i.n. doses every 3 hours, 400 μg, Dose No. 16, read-out: Cmax Geom. mean (% CV)) was 0.18 ng/mL and the Cmax ([1]; inhaled or intranasal, 400 ug, multiple i.n. doses every 3 hours, 400 μg, Dose No. 16, read-out: Cmax Median) was 0.192 ng/mL. For the same compound, the half-life ([1]; inhaled or intranasal, 400 ug, multiple i.n. doses every 3 hours, 400 μg, Dose No. 16, read-out: t1/2 Median (converted)) was 39 min, the Tmax ([1]; inhaled or intranasal, 400 ug, multiple i.n. doses every 3 hours, 400 μg, Dose No. 16, read-out: tmax Mean (SD)) was 18 min and the Tmax ([1]; other: intranasal, 50 ug, multiple i.n. doses every 3 hours, 50 μg, Dose No. 2, read-out: tmax Mean (SD)) was 20.4 min. The Cmax ([1]; other: intranasal, 50 ug, multiple i.n. doses every 3 hours, 50 μg, Dose No. 16, read-out: Cmax Geom. mean (% CV)) was 0.0236 ng/mL, the Tmax ([1]; other: intranasal, 400 ug, multiple i.n. doses every 3 hours, 400 μg, Dose No. 1, read-out: tmax Mean (SD)) was 6.6 min and the AUC(0-t) ([1]; other: intranasal, 400 ug, multiple i.n. doses every 3 hours, 400 μg, Dose No. 16, read-out: AUCt Geom. mean (% CV)) was 0.112 ng·h/mL. The AUC(0-t) ([1]; other: intranasal, 400 ug, multiple i.n. doses every 3 hours, 400 μg, Dose No. 16, read-out: AUCt Median) was 0.112 ng·h/mL, the half-life ([1]; other: intranasal, 400 ug, multiple i.n. doses every 3 hours, 400 μg, Dose No. 16, read-out: t1/2 Harmonic mean (converted)) was 33.6 min and the half-life ([1]; other: intranasal, multiple i.n. doses, all dose groups, read-out: t1/2) was 25 to 35 min. For the same compound, the Tmax ([1]; other: intranasal, multiple i.n. doses, all dose groups, read-out: tmax) was 12 to 15 min, the “Dry mouth: subjects reporting” value (healthy women) was 3 subjects and the “intensity of all adverse events” value (healthy women) was “mild”. For the same compound, the “safety (key results)” value (healthy women) was “No safety”, the AUC(0-t) ([2]; inhaled or intranasal, 400 ug, AUCt Geom. mean (% CV), cross-over, 400 μg i.n. single dose, N = 6) was 0.083 ng·h/mL and the AUC(0-t) ([2]; inhaled or intranasal, 400 ug, AUCt Median, cross-over, 400 μg i.n. single dose, N = 6) was 0.0728 ng·h/mL. The half-life ([2]; inhaled or intranasal, 400 ug, t1/2 Median, cross-over, 400 μg i.n. single dose, N = 6) was 36.6 min, the Tmax ([2]; inhaled or intranasal, 400 ug, cross-over, 400 μg i.n. single dose, N = 6) was 6.6 min and the AUC(0-t) ([2]; iv, 20 ug, AUCt Geom. mean (% CV), cross-over, 20 μg i.v. infusion over 25 minutes, N = 6) was 0.146 ng·h/mL. It also gave a clearance ([2]; iv, 20 ug, CL Median, 20 μg i.v. infusion over 25 minutes, N = 6) of 2130 mL/min, a Cmax ([2]; iv, 20 μg, Cmax Geom. mean (% CV), cross-over, 20 μg i.v. infusion over 25 minutes, N = 6) of 0.463 ng/mL and a Cmax ([2]; iv, 20 ug, Cmax Median, cross-over, 20 μg i.v. infusion over 25 minutes, N = 6) of 0.463 ng/mL. The Vd ([2]; iv, 20 ug, Vz Mean (SD), 20 μg i.v. infusion over 25 minutes, N = 6) was 37.5 L, the Vd ([2]; iv, 20 ug, Vz Median, 20 μg i.v. infusion over 25 minutes, N = 6) was 31.2 L and the Cmax ([2]; iv, 20 μg, mean Cmax, single i.v. infusion of 20 μg over 25 minutes) was 0.463 ng/mL. The half-life ([2]; iv, 20 ug, t1/2 Harmonic mean, cross-over, 20 μg i.v. infusion over 25 minutes, N = 6) was 10.2 min, the half-life ([2]; iv, 20 ug, t1/2 Median, cross-over, 20 μg i.v. infusion over 25 minutes, N = 6) was 10.8 min and the Tmax ([2]; iv, 20 ug, cross-over, 20 μg i.v. infusion over 25 minutes, N = 6) was 21.6 min. The Cmax ([2]; other: intranasal, 400 ug, Cmax Geom. mean (% CV), cross-over, 400 μg i.n. single dose, N = 6) was 0.151 ng/mL, the Cmax ([2]; other: intranasal, 400 ug, Cmax Median, cross-over, 400 μg i.n. single dose, N = 6) was 0.156 ng/mL and the bioavailability ([2]; other: intranasal, 400 μg, F Median, N = 6) was 3.4%. The bioavailability ([2]; other: intranasal, 400 μg, bioavailability (range)) was 2.2 to 6.2%, the Cmax ([2]; other: intranasal, 400 μg, mean Cmax, single dose i.n. administration, highest dose group) was 0.151 ng/mL and the Cmax ([3]; female, human, plasma, inhaled or intranasal, 100 ug, Cmax Geom. mean (% CV), single i.n. dose 100 μg, N = 6) was 0.0379 ng/mL. The Cmax ([3]; female, human, plasma, inhaled or intranasal, 100 ug, Cmax Median, single i.n. dose 100 μg, N = 6) was 0.0322 ng/mL, the AUC(0-t) ([3]; female, human, plasma, inhaled or intranasal, 200 ug, AUCt Geom. mean (% CV), single i.n. dose 200 μg, N = 6) was 0.0357 ng·h/mL and the AUC(0-t) ([3]; female, human, plasma, inhaled or intranasal, 200 ug, AUCt Median, single i.n. dose 200 μg, N = 6) was 0.0525 ng·h/mL. The Cmax ([3]; female, human, plasma, inhaled or intranasal, 200 ug, Cmax Geom. mean (% CV), single i.n. dose 200 μg, N = 6) was 0.0841 ng/mL, the Cmax ([3]; female, human, plasma, inhaled or intranasal, 200 ug, Cmax Median, single i.n. dose 200 μg, N = 6) was 0.0999 ng/mL and the AUC(0-t) ([3]; female, human, plasma, inhaled or intranasal, 300 ug, AUCt Geom. mean (% CV), single i.n. dose 300 μg, N = 6) was 0.0778 ng·h/mL. The AUC(0-t) ([3]; female, human, plasma, inhaled or intranasal, 300 ug, AUCt Median, single i.n. dose 300 μg, N = 6) was 0.0943 ng·h/mL, the Cmax ([3]; female, human, plasma, inhaled or intranasal, 300 ug, Cmax Geom. mean (% CV), single i.n. dose 300 μg, N = 6) was 0.143 ng/mL and the Cmax ([3]; female, human, plasma, inhaled or intranasal, 300 ug, Cmax Median, single i.n. dose 300 μg, N = 6) was 0.148 ng/mL. For the same compound, the Tmax ([3]; female, human, plasma, inhaled or intranasal, 300 ug, tmax Mean (SD), single i.n. dose 300 μg, N = 6) was 12 min, the AUC(0-t) ([3]; female, human, plasma, inhaled or intranasal, 400 ug, AUCt Geom. mean (% CV), single i.n. dose 400 μg, N = 6) was 0.0886 ng·h/mL and the AUC(0-t) ([3]; female, human, plasma, inhaled or intranasal, 400 ug, AUCt Median, single i.n. dose 400 μg, N = 6) was 0.119 ng·h/mL. It also gave a Cmax ([3]; female, human, plasma, inhaled or intranasal, 400 ug, Cmax Median, single i.n. dose 400 μg, N = 6) of 0.199 ng/mL, a Tmax ([3]; female, human, plasma, inhaled or intranasal, 400 ug, tmax Mean (SD), single i.n. dose 400 μg, N = 6) of 13.2 min and a Tmax ([3]; female, human, plasma, other: intranasal, tmax, all i.n. dose levels, single or multiple administration) of 12 to 15 min. The Tmax ([3]; female, human, plasma, other: intranasal, tmax, single i.n. dose, all dose groups) was 12 to 15 min, the half-life ([3]; female, human, plasma, other: intranasal, t½, after i.n. administration, Trial 000015 key results) was about 30 min and the “increase of exposure (AUC and Cmax) with dose” value ([3]; single i.n. doses) was “close to dose proportional manner”.
